Results as given in patent US20190322676A1, “CERAMIDE GALACTOSYLTRANSFERASE INHIBITORS FOR THE TREATMENT OF DISEASE” (BioMarin Pharmaceutical Inc., priority 2016, published 2019).
Structures can show the parent of a compound that is named as a salt.

The compounds below were run against T1, human CGT (ceramide galactosyltransferase), CHO/CGT lysate (Homo sapiens, UniProt Q16880) (assay: CGT enzyme assay, RapidFire/MS/MS readout (Table 1 ranges with one asterisk *)). Details: RapidFire method (range with one asterisk *).
T1 construct: Full-length human CGT cDNA was cloned into the BamH1/Xho1 site of pcDNA3.1 (+); expressed in transfected cells; host or cells: Chinese hamster ovary (CHO) cells; lysate prepared with M-PER
T1 sequence (Q16880 21-541): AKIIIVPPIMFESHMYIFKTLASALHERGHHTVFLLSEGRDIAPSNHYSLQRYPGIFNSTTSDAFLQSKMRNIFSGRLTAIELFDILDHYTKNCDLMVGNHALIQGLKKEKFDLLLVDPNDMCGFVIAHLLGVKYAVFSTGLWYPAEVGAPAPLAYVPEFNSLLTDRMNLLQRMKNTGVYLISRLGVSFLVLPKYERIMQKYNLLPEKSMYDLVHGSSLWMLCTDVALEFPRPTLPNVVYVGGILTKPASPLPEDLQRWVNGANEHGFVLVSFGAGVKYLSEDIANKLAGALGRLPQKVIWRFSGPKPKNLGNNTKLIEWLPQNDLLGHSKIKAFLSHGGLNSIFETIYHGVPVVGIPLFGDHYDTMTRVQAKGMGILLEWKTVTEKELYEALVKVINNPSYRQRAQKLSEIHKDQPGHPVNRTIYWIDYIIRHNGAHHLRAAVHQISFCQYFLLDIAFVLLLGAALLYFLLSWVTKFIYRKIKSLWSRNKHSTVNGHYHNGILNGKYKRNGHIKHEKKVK
Format: biochemical
How it was run: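 IC50s come from variable-slope dose-response fits of internal-standard-normalized C6-NBD-dihydro-galactosylceramide, measured by RapidFire/MS/MS (ESI negative). Reactions: 1 h, 37 °C, human CGT-expressing CHO lysate (4 μg), 0.001–50 μM compound, 10 μM NBD-dihydro-ceramide, 17.5 μM UDP-galactose, 0.5% DMSO, pH 7.2; 0.01% Tween 80 added for ** values.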

| SMILES | IC50 [µM] |
| --- | --- |
| NC1CC2CCC(C1)N2C(=O)[C@H](NC(=O)[C@H](O)c1ccc2cc(OC3CCCC3)ccc2c1)C(F)(F)c1ccc(Br)cc1 (stereo partly drawn) [Compound 41-4, (2R)—N-((2S)-3-(3-amino-8-azabicyclo[3.2.1]octan-8-yl)-1-(4-bromophenyl)-1,1-difluoro-3-oxopropan-2-yl)-2-(6-(cyclopentyloxy)naphthalen-2-yl)-2-hydroxyacetamide trifluoroacetate] | 30 to 100 |
| NC1CCN(C(=O)[C@H](NS(=O)(=O)c2ccc3cc(OC4CCCC4)ccc3c2)C(F)(F)c2ccc(Cl)s2)CC1 [Compound 131-2, (S)—N-(3-(4-aminopiperidin-1-yl)-1-(5-chlorothiophen-2-yl)-1,1-difluoro-3-oxopropan-2-yl)-6-(cyclopentyloxy)naphthalene-2-sulfonamide] | 1 to 10 |
| NC1CCN(C(=O)[C@H](NS(=O)(=O)c2ccc(OCC3CCCCC3)cc2)C(F)(F)c2ccc(C(F)(F)F)cc2)CC1 [Compound 72-2, (S)—N-(3-(4-aminopiperidin-1-yl)-1,1-difluoro-3-oxo-1-(4-(trifluoromethyl)phenyl)propan-2-yl)-4-(cyclohexylmethoxy)benzenesulfonamide] | 30 to 100 |
| CCCCOc1ccc(C(F)(F)[C@H](NS(=O)(=O)c2ccc3cc(OC4CCCC4)ccc3c2)C(=O)N2CCC(N)CC2)cc1 [Compound 80-1, (R)—N-(3-(4-aminopiperidin-1-yl)-1-(4-butoxyphenyl)-1,1-difluoro-3-oxopropan-2-yl)-6-(cyclopentyloxy)naphthalene-2-sulfonamide] | < 1 |
| NC1CC2CCC(C1)N2C(=O)[C@H](NS(=O)(=O)c1ccc2c(cnn2CC2CCCC2)c1)C(F)(F)c1ccc(Cl)cc1 (stereo partly drawn) [Compound 88-2, N-((2S)-3-(3-amino-8-azabicyclo[3.2.1]octan-8-yl)-1-(4-chlorophenyl)-1,1-difluoro-3-oxopropan-2-yl)-1-(cyclopentylmethyl)-1H-indazole-5-sulfonamide] | 30 to 100 |
| NC1CC2CCC(C1)N2C(=O)[C@H](NS(=O)(=O)c1ccc(OCC2CCCC2)cc1)C(F)(F)c1ccc2cc(Br)ccc2c1 (stereo partly drawn) [Compound 39-2, N-((2S)-3-(3-amino-8-azabicyclo[3.2.1]octan-8-yl)-1-(6-bromonaphthalen-2-yl)-1,1-difluoro-3-oxopropan-2-yl)-4-(cyclopentylmethoxy)benzenesulfonamide trifluoroacetate] | 10 to 30 |
| NC1CC2CCC(C1)N2C(=O)[C@@H](NS(=O)(=O)c1ccc(OCC2CCCCC2)cc1)C(F)(F)c1ccc(-c2ccc(Cl)cc2)cc1 (stereo partly drawn) [Compound 50-1, N-((2R)-3-(3-amino-8-azabicyclo[3.2.1]octan-8-yl)-1-(4′-chloro-[1,1′-biphenyl]-4-yl)-1,1-difluoro-3-oxopropan-2-yl)-4-(cyclohexylmethoxy) benzenesulfonamide trifluoroacetate] | < 1 |
| CN([C@H](C(=O)N1C2CCC1CC(N)C2)C(F)(F)c1ccc(OCc2ccccc2)cc1)S(=O)(=O)c1ccc2cc(OC3CCCC3)ccc2c1 (stereo partly drawn) [Compound 106-1, N-((2R)-3-(3-amino-8-azabicyclo[3.2.1]octan-8-yl)-1-(4-(benzyloxy)phenyl)-1,1-difluoro-3-oxopropan-2-yl)-6-(cyclopentyloxy)-N-methylnaphthalene-2-sulfonamide] | 1 to 10 |
| NC1CC2CCC(C1)N2C(=O)[C@H](NS(=O)(=O)c1ccc2cc(OC3CCCC3)ccc2c1)C(F)(F)c1ccc2cc(Br)ccc2c1 (stereo partly drawn) [Compound 38-2, N-((2S)-3-(3-amino-8-azabicyclo[3.2.1]octan-8-yl)-1-(6-bromonaphthalen-2-yl)-1,1-difluoro-3-oxopropan-2-yl)-6-(cyclopentyloxy)naphthalene-2-sulfonamide trifluoroacetate] | 1 to 10 |
| NC1CCN(C(=O)[C@@H](NS(=O)(=O)c2ccc3cc(OC4CCCC4)ccc3c2)C(F)(F)c2ccc(-c3ccc(Cl)s3)cc2)CC1 [Compound 112-1, (R)—N-(3-(4-aminopiperidin-1-yl)-1-(4-(5-chlorothiophen-2-yl)phenyl)-1,1-difluoro-3-oxopropan-2-yl)-6-(cyclopentyloxy)naphthalene-2-sulfonamide trifluoroacetate] | < 1 |
| CN([C@@H](C(=O)N1C2CCC1CC(N)C2)C(F)(F)c1ccc(Oc2ccccc2)cc1)S(=O)(=O)c1ccc(OCC2CCCCC2)cc1 (stereo partly drawn) [Compound 85-2, N-((2S)-3-(3-amino-8-azabicyclo[3.2.1]octan-8-yl)-1,1-difluoro-3-oxo-1-(4-phenoxyphenyl)propan-2-yl)-4-(cyclohexylmethoxy)-N-methylbenzenesulfonamide trifluoroacetate] | 10 to 30 |
| NC1CCN(C(=O)[C@@H](NC(=O)C(=O)c2ccc(OCC3CCCCC3)cc2)C(F)(F)c2ccc(-c3ccc(Cl)cc3)cc2)CC1 [Compound 134-1, (R)—N-(3-(4-aminopiperidin-1-yl)-1-(4′-chloro-[1,1′-biphenyl]-4-yl)-1,1-difluoro-3-oxopropan-2-yl)-2-(4-(cyclohexylmethoxy)phenyl)-2-oxoacetamide trifluoroacetate] | 10 to 30 |
| NC1CCN(C(=O)[C@@H](NC(=O)[C@H](O)c2ccc(OCC3CCCCC3)cc2)C(F)(F)c2ccc(-c3ccc(Cl)cc3)cc2)CC1 [Compound 141-1, (R)—N—((R)-3-(4-aminopiperidin-1-yl)-1-(4′-chloro-[1,1′-biphenyl]-4-yl)-1,1-difluoro-3-oxopropan-2-yl)-2-(4-(cyclohexylmethoxy)phenyl)-2-hydroxyacetamide trifluoroacetate] | 1 to 10 |
| NC1CC2CCC(C1)N2C(=O)[C@@H](NS(=O)(=O)c1ccc(OCC2CCCC2)cc1)C(F)(F)c1ccc2cc(Br)ccc2c1 (stereo partly drawn) [Compound 39-1, N-((2R)-3-(3-amino-8-azabicyclo[3.2.1]octan-8-yl)-1-(6-bromonaphthalen-2-yl)-1,1-difluoro-3-oxopropan-2-yl)-4-(cyclopentylmethoxy) benzenesulfonamide trifluoroacetate] | 1 to 10 |
| NC1CC2CCC(C1)N2C(=O)[C@@H](NS(=O)(=O)c1ccc2cc(OC3CCCC3)ccc2c1)C(F)(F)c1ccc(Oc2ccc(Cl)cc2)cc1 (stereo partly drawn) [Compound 121-1, N-((2R)-3-(3-amino-8-azabicyclo[3.2.1]octan-8-yl)-1-(4-(4-chlorophenoxy)phenyl)-1,1-difluoro-3-oxopropan-2-yl)-6-(cyclopentyloxy) naphthalene-2-sulfonamide] | < 1 |
| NC1CC2CCC(C1)N2C(=O)[C@@H](NS(=O)(=O)c1ccc2cc(OC3CCCC3)ccc2c1)C(F)(F)c1ccc(-c2ccc(F)cc2)cc1 (stereo partly drawn) [Compound 56-1, N-((2R)-3-(3-amino-8-azabicyclo[3.2.1]octan-8-yl)-1,1-difluoro-1-(4′-fluoro-[1,1′-biphenyl]-4-yl)-3-oxopropan-2-yl)-6-(cyclopentyloxy)naphthalene-2-sulfonamide trifluoroacetate] | < 1 |
| NC1CC2CCC(C1)N2C(=O)[C@@H](NS(=O)(=O)c1ccc(OCC2CCCC2)cc1)C(F)(F)c1ccc(C(F)(F)F)cc1 (stereo partly drawn) [Compound 60-1, N-((2R)-3-(3-amino-8-azabicyclo[3.2.1]octan-8-yl)-1,1-difluoro-3-oxo-1-(4-(trifluoromethyl)phenyl)propan-2-yl)-4-(cyclopentylmethoxy) benzenesulfonamide] | 1 to 10 |
| NC1CC2CCC(C1)N2C(=O)[C@H](NS(=O)(=O)c1ccc2c(cnn2CC2CCCC2)c1)C(F)(F)c1ccc(Br)cc1 (stereo partly drawn) [Compound 74-2, N-((2S)-3-(3-amino-8-azabicyclo[3.2.1]octan-8-yl)-1-(4-bromophenyl)-1,1-difluoro-3-oxopropan-2-yl)-1-(cyclopentylmethyl)-1H-indazole-5-sulfonamide] | 30 to 100 |
| CN([C@H](C(=O)N1C2CCC1CC(N)C2)C(F)(F)c1ccc(Oc2ccccc2)cc1)S(=O)(=O)c1ccc(OCC2CCCCC2)cc1 (stereo partly drawn) [Compound 85-1, N-((2R)-3-(3-amino-8-azabicyclo[3.2.1]octan-8-yl)-1,1-difluoro-3-oxo-1-(4-phenoxyphenyl)propan-2-yl)-4-(cyclohexylmethoxy)-N-methylbenzene sulfonamide trifluoroacetate] | 1 to 10 |
| NC1CCN(C(=O)[C@@H](NS(=O)(=O)c2ccc3cc(OC4CCCC4)ccc3c2)C(F)(F)c2ccc(Oc3ccccc3)cc2)CC1 [Compound 61-1, (R)—N-(3-(4-aminopiperidin-1-yl)-1,1-difluoro-3-oxo-1-(4-phenoxyphenyl)propan-2-yl)-6-(cyclopentyloxy)naphthalene-2-sulfonamide] | < 1 |
| NC1CC2CCC(C1)N2C(=O)[C@H](NS(=O)(=O)c1ccc2c(cnn2CC2CCCC2)c1)C(F)(F)c1ccc(C(F)(F)F)cc1 (stereo partly drawn) [Compound 92-2, N-((2S)-3-(3-amino-8-azabicyclo[3.2.1]octan-8-yl)-1,1-difluoro-3-oxo-1-(4-(trifluoromethyl)phenyl)propan-2-yl)-1-(cyclopentylmethyl)-1H-indazole-5-sulfonamide] | 10 to 30 |
